This experiment deals with L1210 leukemia ip in BDF1 mice, survival T/C. The experiment in a line: NCI In Vivo Anticancer Drug Screen. Data for tumor model L1210 Leukemia (intraperitoneal) in B6D2F1 (BDF1) mice. The conditions noted are these: higher = longer survival. Put shortly: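 Tumor cells were implanted, animals were treated, and survival was followed. The result divides the treated measurement by the vehicle-control measurement.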

Setting [1] is: endpoint: mean survival time, dose: 100.0 mg/kg/injection, schedule: Q04DX003 (ip), vehicle: Klucel (hydroxypropylcellulose) (HPC).
Where [2] appears, read: endpoint: mean survival time, dose: 200.0 mg/kg/injection, schedule: Q04DX003 (ip), vehicle: Klucel (hydroxypropylcellulose) (HPC).

Values joined by “and” are separate entries in the source; they are usually repeats but may differ in a detail not shown here. Identical values can stand only once. Inconclusive results and toxic doses are left out.

For `COc1cc([C@@H]2c3cc4c(cc3[C@@H](OC3OC5CO[C@@H](c6cccs6)OC5C(O)C3O)[C@H]3COC(=O)[C@H]23)OCO4)cc(OC)c1O` (stereo partly specified), the T/C was 109 % of control (endpoint: mean survival time, dose: 0.5 mg/kg/injection, schedule: Q03HX024 (ip), vehicle: other); 111 % of control (endpoint: mean survival time, dose: 1.0 mg/kg/injection, schedule: Q01DX009 (ip), vehicle: other); 122 % of control (endpoint: mean survival time, dose: 1.0 mg/kg/injection, schedule: Q03HX008 (ip), vehicle: other); 111 % of control (endpoint: mean survival time, dose: 1.0 mg/kg/injection, schedule: Q03HX016 (ip), vehicle: other); 118 % of control (endpoint: mean survival time, dose: 1.0 mg/kg/injection, schedule: Q03HX024 (ip), vehicle: other); 104 % of control (endpoint: mean survival time, dose: 2.0 mg/kg/injection, schedule: Q01DX009 (oral), vehicle: other). Further, the T/C reads like this: (endpoint: mean survival time, dose: 2.0 mg/kg/injection, schedule: Q03HX008 (oral), vehicle: other) 90 % of control; (endpoint: mean survival time, dose: 2.0 mg/kg/injection, schedule: Q04DX003 (ip), vehicle: water) 194 % of control; (endpoint: mean survival time, dose: 2.0 mg/kg/injection, schedule: Q08DX002 (ip), vehicle: water) 156 % of control; (endpoint: mean survival time, dose: 4.0 mg/kg/injection, schedule: Q01DX001 (ip), vehicle: water) 157 % of control; (endpoint: mean survival time, dose: 4.0 mg/kg/injection, schedule: Q01DX009 (oral), vehicle: other) 101 % of control; (endpoint: mean survival time, dose: 4.0 mg/kg/injection, schedule: Q03HX008 (oral), vehicle: other) 98 % of control. In addition, the T/C is, setting by setting: (endpoint: mean survival time, dose: 4.0 mg/kg/injection, schedule: Q04DX003 (ip), vehicle: other) 110 % of control; (endpoint: mean survival time, dose: 4.0 mg/kg/injection, schedule: Q04DX003 (ip), vehicle: water) 241 % of control; (endpoint: mean survival time, dose: 4.0 mg/kg/injection, schedule: Q08DX002 (ip), vehicle: water) 172 % of control; (endpoint: mean survival time, dose: 8.0 mg/kg/injection, schedule: Q01DX001 (ip), vehicle: water) 162 % of control; (endpoint: mean survival time, dose: 8.0 mg/kg/injection, schedule: Q01DX009 (oral), vehicle: other) 105 % of control; (endpoint: mean survival time, dose: 8.0 mg/kg/injection, schedule: Q03HX008 (oral), vehicle: other) 100 % of control. Further, the T/C reads like this: (endpoint: mean survival time, dose: 8.0 mg/kg/injection, schedule: Q03HX016 (ip), vehicle: other) 186 % of control; (endpoint: mean survival time, dose: 8.0 mg/kg/injection, schedule: Q03HX016 (oral), vehicle: other) 95 % of control; (endpoint: mean survival time, dose: 8.0 mg/kg/injection, schedule: Q03HX024 (oral), vehicle: other) 98 % of control; (endpoint: mean survival time, dose: 8.0 mg/kg/injection, schedule: Q04DX003 (ip), vehicle: water) 426 % of control; (endpoint: mean survival time, dose: 8.0 mg/kg/injection, schedule: Q04DX003 (oral), vehicle: other) 97 % of control; (endpoint: mean survival time, dose: 8.0 mg/kg/injection, schedule: Q08DX002 (ip), vehicle: other) 109 % of control. The T/C runs as follows: (endpoint: mean survival time, dose: 8.0 mg/kg/injection, schedule: Q08DX002 (ip), vehicle: water) 300 % of control; (endpoint: mean survival time, dose: 16.0 mg/kg/injection, schedule: Q01DX001 (ip), vehicle: water) 439 % of control; (endpoint: mean survival time, dose: 16.0 mg/kg/injection, schedule: Q01DX001 (oral), vehicle: other) 111 % of control; (endpoint: mean survival time, dose: 16.0 mg/kg/injection, schedule: Q01DX009 (oral), vehicle: other) 103 % of control; (endpoint: mean survival time, dose: 16.0 mg/kg/injection, schedule: Q03HX008 (oral), vehicle: other) 95 % of control; (endpoint: mean survival time, dose: 16.0 mg/kg/injection, schedule: Q03HX016 (oral), vehicle: other) 94 % of control and 95 % of control. Also, the T/C (endpoint: mean survival time, dose: 16.0 mg/kg/injection, schedule: Q03HX024 (oral), vehicle: other) is 93 % of control; the T/C (endpoint: mean survival time, dose: 16.0 mg/kg/injection, schedule: Q04DX003 (ip), vehicle: water) is 172 % of control; the T/C (endpoint: mean survival time, dose: 16.0 mg/kg/injection, schedule: Q04DX003 (oral), vehicle: other) is 106 % of control; the T/C (endpoint: mean survival time, dose: 16.0 mg/kg/injection, schedule: Q08DX002 (ip), vehicle: other) is 122 % of control; the T/C (endpoint: mean survival time, dose: 16.0 mg/kg/injection, schedule: Q08DX002 (ip), vehicle: water) is 423 % of control; the T/C (endpoint: mean survival time, dose: 16.0 mg/kg/injection, schedule: Q08DX002 (oral), vehicle: other) was 102 % of control. Further, the T/C by setting is: (endpoint: mean survival time, dose: 32.0 mg/kg/injection, schedule: Q01DX001 (ip), vehicle: water) 242 % of control; (endpoint: mean survival time, dose: 32.0 mg/kg/injection, schedule: Q01DX001 (oral), vehicle: other) 161 % of control; (endpoint: mean survival time, dose: 32.0 mg/kg/injection, schedule: Q03HX016 (oral), vehicle: other) 98 % of control; (endpoint: mean survival time, dose: 32.0 mg/kg/injection, schedule: Q03HX024 (oral), vehicle: other) 94 % of control; (endpoint: mean survival time, dose: 32.0 mg/kg/injection, schedule: Q04DX003 (ip), vehicle: water) 103 % of control; (endpoint: mean survival time, dose: 32.0 mg/kg/injection, schedule: Q04DX003 (oral), vehicle: other) 100 % of control. Moreover, the T/C runs as follows: (endpoint: mean survival time, dose: 32.0 mg/kg/injection, schedule: Q08DX002 (ip), vehicle: water) 163 % of control; (endpoint: mean survival time, dose: 32.0 mg/kg/injection, schedule: Q08DX002 (oral), vehicle: other) 100 % of control; (endpoint: mean survival time, dose: 64.0 mg/kg/injection, schedule: Q01DX001 (ip), vehicle: other) 188 % of control; (endpoint: mean survival time, dose: 64.0 mg/kg/injection, schedule: Q01DX001 (oral), vehicle: other) 98 % of control; (endpoint: mean survival time, dose: 64.0 mg/kg/injection, schedule: Q03HX024 (oral), vehicle: other) 92 % of control; (endpoint: mean survival time, dose: 64.0 mg/kg/injection, schedule: Q04DX003 (oral), vehicle: other) 97 % of control. Besides, the T/C by setting is: (endpoint: mean survival time, dose: 64.0 mg/kg/injection, schedule: Q08DX002 (ip), vehicle: other) 190 % of control; (endpoint: mean survival time, dose: 64.0 mg/kg/injection, schedule: Q08DX002 (oral), vehicle: other) 96 % of control; (endpoint: mean survival time, dose: 128.0 mg/kg/injection, schedule: Q01DX001 (oral), vehicle: other) 101 % of control; (endpoint: mean survival time, dose: 128.0 mg/kg/injection, schedule: Q03HX024 (oral), vehicle: other) 94 % of control; (endpoint: mean survival time, dose: 128.0 mg/kg/injection, schedule: Q04DX003 (oral), vehicle: other) 96 % of control; (endpoint: mean survival time, dose: 128.0 mg/kg/injection, schedule: Q08DX002 (oral), vehicle: other) 98 % of control. In addition, the T/C is, setting by setting: (endpoint: mean survival time, dose: 600.0 mg/kg/injection, schedule: Q01DX009 (ip), vehicle: steriod suspending solution) 224 % of control; (endpoint: mean survival time, dose: 800.0 mg/kg/injection, schedule: Q01DX009 (ip), vehicle: steriod suspending solution) 246 % of control; (endpoint: mean survival time, dose: 1000.0 mg/kg/injection, schedule: Q01DX009 (ip), vehicle: steriod suspending solution) 169 % of control; (endpoint: median survival time, dose: 1.0 mg/kg/injection, schedule: Q01DX009 (ip), vehicle: saline) 194 % of control; (endpoint: median survival time, dose: 2.0 mg/kg/injection, schedule: Q01DX009 (ip), vehicle: saline) 116 % of control; (endpoint: median survival time, dose: 4.0 mg/kg/injection, schedule: Q01DX009 (ip), vehicle: saline) 88 % of control.

Turning to `O=C1NN=C(c2ccccc2)CC1c1ccccc1` (stereo unspecified), the T/C (endpoint: mean survival time, dose: 100.0 mg/kg/injection, schedule: Q01DX001 (ip), vehicle: Klucel (hydroxypropylcellulose) (HPC)) was 100 % of control; the T/C under setting [1] was 101 % of control; the T/C (endpoint: mean survival time, dose: 200.0 mg/kg/injection, schedule: Q01DX001 (ip), vehicle: Klucel (hydroxypropylcellulose) (HPC)) is 97 % of control; the T/C under setting [2] was 96 % of control; the T/C (endpoint: mean survival time, dose: 400.0 mg/kg/injection, schedule: Q01DX001 (ip), vehicle: Klucel (hydroxypropylcellulose) (HPC)) is 100 % of control; the T/C (endpoint: mean survival time, dose: 400.0 mg/kg/injection, schedule: Q04DX003 (ip), vehicle: Klucel (hydroxypropylcellulose) (HPC)) was 93 % of control.

As for `CC1(C)N=C(N)N=C(N)N1c1ccc(OCCCOc2ccccc2)c(Cl)c1`, the T/C by setting is: (endpoint: mean survival time, dose: 50.0 mg/kg/injection, schedule: Q01DX009 (ip), vehicle: Klucel (hydroxypropylcellulose) (HPC)) 98 % of control; (endpoint: mean survival time, dose: 100.0 mg/kg/injection, schedule: Q01DX009 (ip), vehicle: Klucel (hydroxypropylcellulose) (HPC)) 102 % of control; under setting [1], 92 % of control; under setting [2], 91 % of control.

For the compound `Nc1n[nH]c2cccc(Cl)c12`, the T/C is 96 % of control (endpoint: mean survival time, dose: 50.0 mg/kg/injection, schedule: Q01DX009 (ip), vehicle: saline); 104 % of control (endpoint: mean survival time, dose: 100.0 mg/kg/injection, schedule: Q01DX009 (ip), vehicle: saline); 96 % of control (endpoint: mean survival time, dose: 200.0 mg/kg/injection, schedule: Q01DX009 (ip), vehicle: saline).

On to `CC1(C)OCC(/C=C/C=N/Nc2ccc([N+](=O)[O-])cc2)O1` (stereo unspecified), for which the T/C runs as follows: (endpoint: mean survival time, dose: 100.0 mg/kg/injection, schedule: Q04DX003 (ip), vehicle: saline with Tween-80) 94 % of control; (endpoint: mean survival time, dose: 200.0 mg/kg/injection, schedule: Q04DX003 (ip), vehicle: saline with Tween-80) 96 % of control; (endpoint: mean survival time, dose: 400.0 mg/kg/injection, schedule: Q04DX003 (ip), vehicle: saline with Tween-80) 91 % of control.

These data come from PubChem BioAssay AID248 (DTP/NCI, 2004).
